This assay concerns the target UPR counterscreen luciferase reporter, luminescence. Nature of the assay: luciferase reporter activation, UPR counterscreen line – cell-based, luminescence, counter-screen for adaptive UPR activator project, dose response (AID 489027). (In general: A reporter such as luciferase makes a cellular process visible.)

Consider 61 compounds from PubChem BioAssay AID489027 (Sanford-Burnham Center for Chemical Genomics, 2010).

Calls of active or inactive are those of the source. How the calls were made is not given here. Bounds are passed on as bounds.

The term EC50 denotes the concentration needed to bring the measured effect to its halfway point. Regarding `Cc1ccc(-c2cc(C(F)F)n3ncc(C(=O)N4CCc5ccccc54)c3n2)cc1`, the EC50 was > 80 µM (inactive).

`COc1ccc(C2c3ccc4ccccc4c3Oc3ncn(CCCN(C)C)c(=N)c32)cc1` (stereo unspecified): the EC50 was 8.25 µM.

In the case of `Cc1cccc2sc(NC(=O)c3cc(S(=O)(=O)N(C)C)ccc3N3CCCC3)nc12`, the EC50 is 7.43 µM.

With `Cc1nn(Cc2c(Cl)cccc2Cl)c(C)c1NC(=O)c1sc2ccccc2c1Cl`, the EC50 was 18.5 µM.

In the case of `CN1C(=O)/C(=C/c2ccc(C(=O)NC3CCCC3)cc2)Oc2ccccc21`, the EC50 was > 80 µM (inactive).

On to `CCCCCCCCCCOC(=O)Cn1c(COc2ccccc2OC)[n+](C)c2ccccc21`, for which the EC50 was 12.8 µM.

On to `CC(C)N(C(=O)[C@H]1C[C@H](CC(=O)NCc2cccc(C(F)(F)F)c2)C(=O)N2CCc3c([nH]c4ccc(Cl)cc34)[C@]12C)C(C)C`, for which the EC50 result was “inactive”.

Take `Cc1ccc(C)c(N=Cc2c(O)c3ccccc3oc2=O)c1`: the EC50 entry is “inactive”.

In the case of `O=S(=O)(c1ccc2nc(-c3ccccc3)[nH]c2c1)N1CCN(c2ccc(Cl)cc2)CC1`, the EC50 is > 80 µM (inactive).

On to `Cn1nc(C(F)(F)F)c(/C=N/OC(=O)c2ccccc2)c1SCc1ccccc1Cl`, for which the EC50 result is “inactive”.

For `CCC1(c2ccc(F)cc2)NC(=O)N(CC(=O)Nc2ccc(-c3nc4ccc(C)cc4s3)cc2)C1=O` (stereo unspecified), the EC50 was > 80 µM (inactive).

`CCCn1c(Nc2nc3ccccc3n2C)nc2ccccc21`: the EC50 result was “inactive”.

Turning to `Nc1c(C(=O)Nc2ccc(S(=O)(=O)N3CCCC3)cc2)sc2nc3ccc(OC(F)(F)F)cc3cc12`, the EC50 is 4.39 µM.

Regarding `Cc1cccn2c(=O)c3cc(C(=O)NC4CCCCCC4)sc3nc12`, the EC50 is > 80 µM (inactive).

For the compound `COc1ccc(-c2csc3nc(-c4ccc(C)cc4)oc(=O)c23)cc1OC`, the EC50 is > 80 µM (inactive).

With `O=C(Cc1ccccc1)c1c[nH]c(C(=O)C(Cl)(Cl)Cl)c1`, the EC50 result was “inactive”.

As for `O=C(/C(=N/N=C/c1ccc(O)c(O)c1)c1ccccc1)c1ccccc1`, the EC50 is 8.07 µM.

Regarding `COc1cc2nc(N3CCN(c4cc(C)ccc4C)CC3)nc(N)c2cc1OC`, the concentration giving a half-maximal response (EC50) is 9.19 µM.

As to `CC1CCN(Cc2c(C(=O)N/N=C/c3ccc(C(C)(C)C)cc3)nnn2-c2nonc2N)CC1`, the EC50 is 6.58 µM.

Consider `CN(C)CCCn1cnc2c(c1=N)C(c1ccccc1)c1ccc3ccccc3c1O2` (stereo unspecified), for which the EC50 is 7.75 µM.

Regarding `O=C(/C=C/c1ccccc1)NC(NC(=S)Nc1cccc(Cl)c1)C(Cl)(Cl)Cl` (stereo unspecified), the EC50 is > 80 µM (inactive).

On to `COc1ccc(-n2c(C)cc(C(=O)CCl)c2C)cc1`, for which the EC50 was 5.8 µM.

On to `C=CCOc1ccc(/C=N/N2C(=O)C(CC(=O)Nc3ccc(F)cc3F)SC2=NC)cc1` (stereo unspecified), for which the EC50 is > 80 µM (inactive).

As for `O=C(NN1C(=O)/C(=C/c2ccc(O)c(O)c2)SC1=S)c1ccccc1`, the EC50 is 10.2 µM.

Take `N#Cc1cnn2c1nc(N1CCCCC1)c1ccccc12`: the EC50 was > 80 µM (inactive).

`CCOC(=O)C1=C(C)N=C2SC(C(=O)OC)=CC(=O)N2C1c1ccc(F)cc1` (stereo unspecified): the EC50 was > 80 µM (inactive).

On to `COc1cc(SC#N)ccc1N=Cc1c(C)[nH]n(-c2ccc(Cl)cc2)c1=O`, for which the EC50 is 7.41 µM.

Turning to `CC(C)N=C(NS(=O)(=O)c1ccccc1)C(Cl)(Cl)Cl`, the EC50 is > 80 µM (inactive).

On to `CCc1ccc2[nH]c3nc(SCc4nnc(-c5ccc(C)cc5)o4)nnc3c2c1`, for which the EC50 entry is “inactive”.

Take `CCOc1ccccc1NC(=O)Cn1c(=O)n(-c2ccccc2)c(=O)c2oc3ccccc3c21`: the EC50 is > 80 µM (inactive).

Take `CC(C)CN=C(NS(=O)(=O)c1ccccc1)C(Cl)(Cl)Cl`: the EC50 was 16.2 µM.

Regarding `NS(=O)(=O)c1ccc(N/N=C2/CCCCC2C2CCCCC2)c([N+](=O)[O-])c1` (stereo unspecified), the EC50 was 15 µM.

As for `COc1cc(-c2ccc3oc(-c4ccsc4)cc3c2)cc(OC)c1OC`, the EC50 was > 80 µM (inactive).

For `CN(c1ccccc1)S(=O)(=O)c1cccc(C(=O)NCCc2ccc(O)c(O)c2)c1`, the EC50 is 6.18 µM.

With `COc1ccccc1-c1cc(-c2ccccc2)nc(SC(C(N)=O)c2ccccc2)c1C#N` (stereo unspecified), the EC50 was > 80 µM (inactive).

For the compound `Cc1ccc(Cn2c(SCC(=O)Nc3cc(C)on3)nc3ccccc3c2=O)cc1`, the EC50 was > 80 µM (inactive).

Take `NC(=O)CC(NC(=O)Cc1cccc2ccccc12)c1ccc(NCCOc2ccccc2)c([N+](=O)[O-])c1` (stereo unspecified): the EC50 was > 80 µM (inactive).

Turning to `COC(=O)c1cc([N+](=O)[O-])c(-n2ccnc2)c([N+](=O)[O-])c1`, the EC50 is > 80 µM (inactive).

`NS(=O)(=O)c1ccc(NC(=O)COC(=O)c2cn(-c3ccccc3)nc2-c2ccc(F)cc2)cc1`: the EC50 entry was “inactive”.

Regarding `COc1ccc(OC)c(Nc2nc(NCc3ccco3)nc(N)c2[N+](=O)[O-])c1`, the EC50 entry is “inactive”.

On to `COc1ccc(CCn2c(=S)[nH]c3cc(C(=O)NCc4ccco4)ccc3c2=O)cc1OC`, for which the EC50 is > 80 µM (inactive).

`CCOc1cc2c3c(c1)C(C)=CC(C)(C)N3C(=O)C2=O`: the EC50 result is “inactive”.

On to `Cc1ccc(-n2nc3cc(C)c(NC(=S)NC(=O)/C=C/c4ccco4)cc3n2)cc1`, for which the EC50 is 11.6 µM.

For the compound `COc1ccc(C(=O)/C=C/c2cccs2)c(OC(=O)c2cccc([N+](=O)[O-])c2)c1`, the EC50 entry was “inactive”.

For the compound `CN(C)c1ccc(/C=N/NC(=O)c2ccc(NC(=O)c3ccccc3)cc2)cc1`, the EC50 result was “inactive”.

For the compound `C/C(=N/Nc1cc(-c2ccccc2)nc(-c2ccccc2)n1)c1ccc(O)cc1`, the EC50 was 15.4 µM.

Regarding `O=c1[nH]c(CSc2ncnc3sc(-c4ccccc4)cc23)nc2ccccc12`, the EC50 was > 80 µM (inactive).

For the compound `CC1=CC(C)[C@H](/C=N/n2c(=O)[nH]c3c([nH]c4ccc(C)cc43)c2=O)C(C)C1` (stereo partly specified), the EC50 result was “inactive”.

As for `CCn1cc(C(=O)NC(=S)Nc2sc3c(c2C(=O)OC)CCCCCC3)cn1`, the EC50 result is “inactive”.

Turning to `O=C(/C=C/c1ccco1)NC(=S)Nc1ccc(O)c(-c2nc3ccccc3s2)c1`, the EC50 is 11 µM.

With `CC(C)(C)c1cc(-c2nc(N)nc(N)n2)c(O)c(C(C)(C)C)c1`, the EC50 entry was “inactive”.

For the compound `CCC1CCc2c(sc3nc(SCC(=O)NCc4ccco4)n(-c4ccccc4)c(=O)c23)C1` (stereo unspecified), the EC50 was 15.8 µM.

In the case of `CCc1ccc(N2C(=O)NC(=O)/C(=C\c3cccn3CCOc3ccc(C(C)C)cc3)C2=O)cc1`, the EC50 is 6.38 µM.

For `COc1ccc(C(CCNCc2ccc(F)cc2)c2ccc(F)cc2)cc1` (stereo unspecified), the EC50 is 13.6 µM.

For the compound `CCOC(=O)c1cc(-c2ccccc2)sc1NC(=O)c1ccc(OC)cc1`, the EC50 entry was “inactive”.

For the compound `COc1ccc(-c2c(-c3cc(OC)cc(OC)c3)n(C)c3ccc(-c4cnc(N)nc4)cc23)cc1`, the EC50 is > 80 µM (inactive).

For `Cc1nc(Nc2nc(-c3ccccc3)cc(=O)[nH]2)nc2ccccc12`, the EC50 is > 80 µM (inactive).

`Cc1ccccc1OCc1nc(-c2ccc(NC(=O)c3ccc4c(c3)OCO4)cc2)no1`: the EC50 entry is “inactive”.

Consider `Cn1c(=O)c2c(SCC(=O)Nc3ccccc3F)nc(-c3ccccc3F)nc2n(C)c1=O`, for which the EC50 result is “inactive”.

As to `Cc1ccnc(N/C=C(\C#N)c2nc(-c3cccc(Br)c3)cs2)c1`, the EC50 is 19 µM.

Regarding `COc1ccc(-c2ccc3c(c2)S(=O)(=O)c2cccc(C(=O)NCCOc4ccccc4Cl)c2C3=O)cc1OC`, the EC50 is > 80 µM (inactive).
